Drawing on US20230015478A1, “GLP-1 RECEPTOR AGONISTS HAVING IMPROVED PHARMACOLOGICAL AND DRUG DELIVERY PROPERTIES” (priority 2021, published 2023), this text covers EC50 for 12 molecules.

This assay concerns the target T1, hGLP1 receptor (Homo sapiens, UniProt P43220).
T1 construct: expressed in transfected cells; host or cells: HEK (human embryonic kidney) cells co-expressing hGLP1 receptor and CRE-Luciferase
The experiment in a line: cAMP HTRF agonist assay in HEK cells co-expressing hGLP1 receptor and CRE-Luciferase. It counts as cell-based. The method, then:
Human embryonic kidney cells (HEK) co-expressing the hGLP1 receptor and CRE-Luciferase construct were used to determine agonist potency in this assay. The cells were thawed briefly at 37° C., transferred to a sterile tube and re-suspended in complete media at 37° C. Cells were centrifuged at 1000 rpm for 5 minutes and cells collected; cells were re-suspended in assay buffer consisting of DPBS (GIBCO) with 500 μM of the phosphodiesterase inhibitor IBMX. […] The optimal cell density was determined to be 1000 cells/well; cells were added to wells in 384-well plates containing appropriate pre-prepared dilutions of compounds (test peptides or reference compound exendin-4), sealed and incubated with CO2 for 30 min. Test peptide solutions were diluted from 10 mM stock solutions; for most peptides an initial run was performed in duplicate from a maximal concentration of 1.0 μM, with 11 concentrations tested for each peptide using serial 1:3 dilution from this maximal concentration. […] The agonist assay was a homogeneous time-resolved fluorescence (HTRF) assay (Cisbio).
Following incubation of the cells for 30 minutes with test or reference peptides, 5 μL of the cAMP acceptor cAMP-d2, prepared previously as a working solution from frozen stock (1:20 dilution), was added to each well of the assay plate, along with 5 μL of anti-cAMP antibody-cryptate working solution (diluted 1:20 from frozen stock). The wells were incubated for 1 hour at room temperature, and fluorescence was then read at 665 and 615 nm with an Envision reader with TRF laser. Data were saved and analyzed using Prism software (GraphPad). Concentration-response analysis was performed using 4-parameter logistic fits of the resulting data, and EC50 values obtained for each test and reference compound.

The mark [1] stands for this setting: Table 5, 0% albumin, read-out: cAMP EC50, nM (0% albumin).
[2] abbreviates: cAMP EC50, nM (0.1% albumin), Table 1, 0.1% albumin.
Where [3] appears, read: cAMP EC50, nM (0.1% albumin), Table 4, 0.1% albumin.
Setting [4] is: cAMP EC50, nM (0.1% albumin), Table 6, 0.1% albumin.

Read-outs that look alike come from different tables or passages of the source. Square brackets hold non-standard residues; d marks the D form. Peptide text beside a SMILES is read from it. Bip = N[C@@H](Cc1ccc(-c2ccccc2)cc1)C(=O)O; αMePhe(2-F) = C[C@](N)(Cc1ccccc1F)C(=O)O; hPhe = N[C@@H](CCc1ccccc1)C(=O)O; Aib = CC(C)(N)C(=O)O

T1 sequence (P43220 24-463): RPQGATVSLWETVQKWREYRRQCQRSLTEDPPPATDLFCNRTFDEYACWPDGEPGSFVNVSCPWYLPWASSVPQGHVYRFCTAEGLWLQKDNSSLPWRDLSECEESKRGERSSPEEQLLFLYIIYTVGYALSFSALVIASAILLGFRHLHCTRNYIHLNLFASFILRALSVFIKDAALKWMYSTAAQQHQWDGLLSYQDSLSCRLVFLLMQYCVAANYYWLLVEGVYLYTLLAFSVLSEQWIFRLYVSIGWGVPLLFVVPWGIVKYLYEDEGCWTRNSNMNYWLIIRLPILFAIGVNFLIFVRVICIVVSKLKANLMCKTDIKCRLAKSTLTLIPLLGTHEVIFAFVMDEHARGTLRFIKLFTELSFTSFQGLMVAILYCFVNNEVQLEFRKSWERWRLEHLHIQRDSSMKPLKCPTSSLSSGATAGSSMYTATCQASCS

As a reminder, the EC50 is the concentration that produces a half-maximal response. With `C[C@@H](O)[C@H](NC(=O)CNC(=O)[C@H](CCC(=O)O)NC(=O)C(C)(C)NC(=O)[C@@H](N)Cc1c[nH]cn1)C(=O)N[C@@H](Cc1ccccc1)C(=O)N[C@H](C(=O)N[C@@H](CO)C(=O)N[C@@H](CC(=O)O)C(=O)N[C@@H](Cc1ccc(-c2ccccc2)cc1)C(=O)N[C@@H](Cc1ccc(-c2ccccc2)cc1)C(N)=O)[C@@H](C)O` [1-1, H2N-His-Aib-Glu-Gly-Thr-Phe-Thr-Ser-Asp-Bip-Bip-C(O)NH2] (H-H[Aib]EGTFTSD[Bip][Bip]-NH2), the EC50 under setting [1] came to 6.82 nM and the EC50 under setting [2] was determined as 6.82 nM.

With `C[C@@H](O)[C@H](NC(=O)CNC(=O)[C@H](CCC(=O)O)NC(=O)C(C)(C)NC(=O)[C@@H](N)Cc1c[nH]cn1)C(=O)N[C@@](C)(Cc1ccccc1F)C(=O)N[C@H](C(=O)N[C@@H](CO)C(=O)N[C@@H](CC(=O)O)C(=O)N[C@@H](Cc1ccc(-c2ccccc2)cc1)C(=O)N[C@@H](Cc1ccc(-c2ccccc2)cc1)C(N)=O)[C@@H](C)O` [1-2, H2N-His-Aib-Glu-Gly-Thr-α-MePhe(2-F)-Thr-Ser-Asp-Bip-Bip-C(O)NH2] (H-H[Aib]EGT[αMePhe(2-F)]TSD[Bip][Bip]-NH2), the concentration giving a half-maximal response (EC50) by setting is: under setting [1], 0.09 nM; under setting [2], 0.09 nM; (cAMP EC50, nM (0.1% albumin), Table 3, 0.1% albumin) 0.09 nM; under setting [3], 0.09 nM; under setting [4], 0.09 nM.

For `C[C@@H](O)[C@H](NC(=O)CNC(=O)[C@H](CCC(=O)O)NC(=O)C(C)(C)NC(=O)[C@@H](N)Cc1c[nH]cn1)C(=O)N[C@@](C)(Cc1ccccc1F)C(=O)N[C@H](C(=O)N[C@@H](CO)C(=O)N[C@@H](CC(=O)O)C(=O)N[C@@H](CCc1ccccc1)C(=O)N[C@@H](Cc1ccc(-c2ccccc2)cc1)C(N)=O)[C@@H](C)O` [1-3, H2N-His-Aib-Glu-Gly-Thr-α-MePhe(2-F)-Thr-Ser-Asp-Hph-Bip-C(O)NH2] (H-H[Aib]EGT[αMePhe(2-F)]TSD[hPhe][Bip]-NH2), under setting [1], the EC50 worked out at 11 nM.

In the case of `C[C@@H](O)[C@H](NC(=O)CNC(=O)[C@H](CCC(=O)O)NC(=O)C(C)(C)NC(=O)[C@@H](N)Cc1c[nH]cn1)C(=O)N[C@@](C)(Cc1ccccc1F)C(=O)N[C@H](C(=O)N[C@@H](CO)C(=O)N[C@@H](CC(=O)O)C(=O)N[C@@H](Cc1ccc(-c2ccccc2)cc1)C(=O)N[C@@H](CCc1ccccc1)C(N)=O)[C@@H](C)O` [1-4, H2N-His-Aib-Glu-Gly-Thr-α-MePhe(2-F)-Thr-Ser-Asp-Bip-Hph-C(O)NH2] (H-H[Aib]EGT[αMePhe(2-F)]TSD[Bip][hPhe]-NH2), the EC50 runs as follows: under setting [1], 11 nM; under setting [4], 11 nM. The molecule `C[C@@H](O)[C@H](NC(=O)CNC(=O)[C@H](CCC(=O)O)NC(=O)C(C)(C)NC(=O)[C@H](Cc1c[nH]cn1)NC(=O)[C@@H](N)CCCNC(=N)N)C(=O)N[C@@H](Cc1ccccc1)C(=O)N[C@H](C(=O)N[C@@H](CO)C(=O)N[C@@H](CC(=O)O)C(=O)N[C@@H](Cc1ccc(-c2ccccc2)cc1)C(=O)N[C@@H](Cc1ccc(-c2ccccc2)cc1)C(N)=O)[C@@H](C)O` [2-1, H2N-Arg-His-Aib-Glu-Gly-Thr-Phe-Thr-Ser-Asp-Bip-Bip-C(O)NH2] (H-RH[Aib]EGTFTSD[Bip][Bip]-NH2) registered an EC50 under setting [3] of 10.6 nM. Under setting [3], `C[C@@H](O)[C@H](NC(=O)CNC(=O)[C@H](CCC(=O)O)NC(=O)C(C)(C)NC(=O)[C@H](Cc1c[nH]cn1)NC(=O)[C@@H](N)CCC(=O)O)C(=O)N[C@@H](Cc1ccccc1)C(=O)N[C@H](C(=O)N[C@@H](CO)C(=O)N[C@@H](CC(=O)O)C(=O)N[C@@H](Cc1ccc(-c2ccccc2)cc1)C(=O)N[C@@H](Cc1ccc(-c2ccccc2)cc1)C(N)=O)[C@@H](C)O` [2-2, H2N-Glu-His-Aib-Glu-Gly-Thr-Phe-Thr-Ser-Asp-Bip-Bip-C(O)NH2] (H-EH[Aib]EGTFTSD[Bip][Bip]-NH2) registered an EC50 of 40.1 nM. On to `C[C@@H](O)[C@H](NC(=O)CNC(=O)[C@H](CCC(=O)O)NC(=O)C(C)(C)NC(=O)[C@H](Cc1c[nH]cn1)NC(=O)CN)C(=O)N[C@@H](Cc1ccccc1)C(=O)N[C@H](C(=O)N[C@@H](CO)C(=O)N[C@@H](CC(=O)O)C(=O)N[C@@H](Cc1ccc(-c2ccccc2)cc1)C(=O)N[C@@H](Cc1ccc(-c2ccccc2)cc1)C(N)=O)[C@@H](C)O` [2-3, H2N-Gly-His-Aib-Glu-Gly-Thr-Phe-Thr-Ser-Asp-Bip-Bip-C(O)NH2] (H-GH[Aib]EGTFTSD[Bip][Bip]-NH2), for which the EC50 under setting [3] came to 21.1 nM. Molecule `C[C@@H](O)[C@H](NC(=O)CNC(=O)[C@H](CCC(=O)O)NC(=O)C(C)(C)NC(=O)[C@H](Cc1c[nH]cn1)NC(=O)[C@@H]1CCCN1)C(=O)N[C@@H](Cc1ccccc1)C(=O)N[C@H](C(=O)N[C@@H](CO)C(=O)N[C@@H](CC(=O)O)C(=O)N[C@@H](Cc1ccc(-c2ccccc2)cc1)C(=O)N[C@@H](Cc1ccc(-c2ccccc2)cc1)C(N)=O)[C@@H](C)O` [2-4, H2N-Pro-His-Aib-Glu-Gly-Thr-Phe-Thr-Ser-Asp-Bip-Bip-C(O)NH2] (H-PH[Aib]EGTFTSD[Bip][Bip]-NH2) showed an EC50 under setting [3] of 14.7 nM. Under setting [3], `C[C@@H](O)[C@H](NC(=O)CNC(=O)[C@H](CCC(=O)O)NC(=O)C(C)(C)NC(=O)[C@H](Cc1c[nH]cn1)NC(=O)[C@@H](N)Cc1c[nH]c2ccccc12)C(=O)N[C@@H](Cc1ccccc1)C(=O)N[C@H](C(=O)N[C@@H](CO)C(=O)N[C@@H](CC(=O)O)C(=O)N[C@@H](Cc1ccc(-c2ccccc2)cc1)C(=O)N[C@@H](Cc1ccc(-c2ccccc2)cc1)C(N)=O)[C@@H](C)O` [2-5, H2N-Trp-His-Aib-Glu-Gly-Thr-Phe-Thr-Ser-Asp-Bip-Bip-C(O)NH2] (H-WH[Aib]EGTFTSD[Bip][Bip]-NH2) displayed an EC50 of 10.9 nM. The molecule `CC(C)C[C@H](NC(=O)[C@@H](N)CCC(=O)O)C(=O)NC(C)(C)C(=O)N[C@@H](CCC(=O)O)C(=O)NCC(=O)N[C@H](C(=O)N[C@@](C)(Cc1ccccc1F)C(=O)N[C@H](C(=O)N[C@@H](CO)C(=O)N[C@@H](CC(=O)O)C(=O)N[C@@H](Cc1ccc(-c2ccccc2)cc1)C(=O)N[C@@H](Cc1ccc(-c2ccccc2)cc1)C(N)=O)[C@@H](C)O)[C@@H](C)O` [2-6, H2N-Glu-Leu-Aib-Glu-Gly-Thr-α-MePhe(2-F)-Thr-Ser-Asp-Bip-Bip-C(O)NH2] (H-EL[Aib]EGT[αMePhe(2-F)]TSD[Bip][Bip]-NH2) registered an EC50 under setting [3] of 9.2 nM. Consider `CC(C)C[C@H](NC(=O)[C@@H](N)CCC(=O)O)C(=O)NC(C)(C)C(=O)N[C@@H](CC(=O)O)C(=O)NCC(=O)N[C@H](C(=O)N[C@@](C)(Cc1ccccc1F)C(=O)N[C@H](C(=O)N[C@@H](CO)C(=O)N[C@@H](CC(=O)O)C(=O)N[C@@H](Cc1ccc(-c2ccccc2)cc1)C(=O)N[C@@H](Cc1ccc(-c2ccccc2)cc1)C(N)=O)[C@@H](C)O)[C@@H](C)O` [2-7, H2N-Glu-Leu-Aib-Asp-Gly-Thr-α-MePhe(2-F)-Thr-Ser-Asp-Bip-Bip-C(O)NH2] (H-EL[Aib]DGT[αMePhe(2-F)]TSD[Bip][Bip]-NH2), for which the EC50 under setting [3] came to 3.1 nM. For the molecule `CC(C)C[C@H](NC(=O)[C@@H](N)Cc1ccccc1)C(=O)NC(C)(C)C(=O)N[C@@H](CCC(=O)O)C(=O)NCC(=O)N[C@H](C(=O)N[C@@](C)(Cc1ccccc1F)C(=O)N[C@H](C(=O)N[C@@H](CO)C(=O)N[C@@H](CC(=O)O)C(=O)N[C@@H](Cc1ccc(-c2ccccc2)cc1)C(=O)N[C@@H](Cc1ccc(-c2ccccc2)cc1)C(N)=O)[C@@H](C)O)[C@@H](C)O` [2-8, H2N-Phe-Leu-Aib-Glu-Gly-Thr-α-MePhe(2-F)-Thr-Ser-Asp-Bip-Bip-C(O)NH2] (H-FL[Aib]EGT[αMePhe(2-F)]TSD[Bip][Bip]-NH2), a half-maximal response under setting [3] (EC50) required 4.1 nM.
